# Results published in patent US9101582B2, “Use of a pneumococcal P4 peptide for enhancing opsonophagocytosis in response to a pathogen” (priority 2008, dated 2015).
# Several values for one entry are separate records, joined by “and”; a condition that tells them apart may be missing. Identical values can stand only once. Entries after “also recorded” stand apart in the source; their conditions may differ. Ends that are not written are not given here.
# Assays:
# [1] = P4 toxicity test in mice; format: in vivo; settings: ip, 1, 10, 100 and 1000 μg/mouse; 10-week-old ND4-SW mice
# Description: At 72 hours, all the infected mice were moribund (n=60; moribund score, 2-3 [see below]). At 72 and 96 hours after infection, 40 animals were passively immunized with gamma globulin (100 μL/mouse; iv, n=20; ip, n=20). After a time lapse of 20 minutes, allowing for possible preopsonization in vivo, 20 of the passively immunized mice (intravenous (iv), n=10; intraperitoneal (ip), n=10) received P4 (100 μg; 100 μL/mouse) through an iv or ip route. Control mice were given DEPC water (100 μL) or P4 alone. Initially, P4 peptide was tested for toxicity in mice at 1, 10, 100, and 1000 μg. P4 was injected ip into 10-week-old ND4-SW mice at a constant volume of 100 μL.
# [2] = system: S. pneumoniae serotype 3 (WU2); assay: Opsonophagocytic killing (OPK) assay with HL-60 cells differentiated into granulocytes; format: cell-based, Streptococcus pneumoniae
# [3] = system: anti-P4 IgG; settings: serum 14 days post infection from mice treated with P4 therapy
# Description: Blood samples from mice treated with P4 therapy were collected 14 days post infection, and the serum fractions were separated by adopting the methodology described previously (Rajam, 2009). An enzyme-linked immunosorbent assay (ELISA) was performed to detect and quantify antiprotein immunoglobulin G (IgG) as described previously, with minor modifications (Scott, et al., Clin. Diagn. Lab. Immunol. 12:1195-1201, 2005; Scott et al., J. Infect. Dis. 186:220-226, 2002). Briefly, ELISA plates were coated with the P4 peptide at a 5-μg/ml concentration. Plates were incubated at 4° C. overnight and used to detect and quantify anti-P4 IgG in mouse sera. Horseradish peroxidase-labeled anti-mouse IgG (Sigma, St. Louis, Mo.) was used as the reporter antibody. SUREBLUE® 3,3′,5,5′-tetramethylbenzidine (KPL, Gaithersburg, Md.) was used as the substrate, and 1 N HCl was used as the stop solution. Samples were assayed in triplicate, and suitable positive and negative controls were included.
# [4] = system: S. pneumoniae serotype 3 (WU2); assay: Combination therapy of moribund mice after intranasal S. pneumoniae WU2 infection (Example 2); format: in vivo
# Description: S. pneumoniae serotype 3 (WU2) was used for mouse infections as described previously (Rajam et al. J. Infect. Dis. 199:1233-1238, 1999). P4, a 28-amino-acid peptide, was synthesized, purified, and prepared for combination therapy as described previously (Carlone et al. Microb. Pathog. 44:186-196, 2008). Gamma globulin (intravenous immunoglobulin [IVIG]; Gamunex, Telecris, N.C.) was used as a source of Pnc serotype-specific polysaccharide antibodies (Frasch and Scott Clin. Diagn. Lab. Immunol. 11:1158-1164, 2004; Rajam et al., Clin. Vaccine Immunol. 14:1223-1227, 2007; Romero-Steiner et al., Clin. Diagn. Lab. Immunol. 10:1019-1024, 2003). Ceftriaxone (catalog no. C5793; Sigma-Aldrich, St. Louis, Mo.), an expanded-spectrum cephalosporin, was dissolved in phosphate-buffered saline (0.01 M), and working dilutions in phosphate-buffered saline were made for mouse inoculations.
# Female Swiss Webster mice (Charles River Laboratories, Wilmington, Mass.) 6 to 10 weeks of age were used in this study. All experiments were approved by the Institutional Animal Care and Use Committee (IACUC) and conducted according to the institutional ethical guidelines for animal experiments and safety guidelines.
# Intranasal infections of mice with a Pnc isolate were carried out by adopting the methodology described by Briles et al., 2003. Briefly, a mouse was injected intraperitoneally (ip) with 20 μl of 100-mg/ml ketamine hydrochloride (KETASET®; Wyeth). Once the mouse was lethargic, 40 μl of the bacterial suspension (˜2.1×10^7 cells/mouse) was dispensed drop by drop close to the nose, allowing the mouse to inhale the bacteria. Scruffiness combined with a hunched posture or lethargy indicated moribundity in a mouse. […] Control groups included untreated animals or animals that received P4 alone, IVIG alone, or ceftriaxone (at 0.3, 3.0, 300, or 3,000 μg/mouse) alone. Treatment groups included mice that received a single inoculum containing P4 and IVIG with or without ceftriaxone at one of three different doses (0.3, 3.0, or 300 μg/mouse).
# Mice were restrained using a Tailveiner restrainer (model no. TV-150; Braintree Scientific, Braintree, Mass.). IVIG and/or P4 was administered intravenously (iv) using a 25-gauge needle and a 1-ml syringe. IVIG (100-μl volume/mouse) was administered first, followed 20 min later by P4 (50 μg in a 100-μl volume/mouse). Ceftriaxone was administered (ip in a 100-μl volume/mouse) 30 min after P4 administration. Animals were monitored daily for 7 days or (in the repeat infection study) 36 days post treatment for clinical signs of disease progression. For repeat therapy, mice rescued with P4 combination therapy were reinfected on day 28 post treatment and treated again with P4 combination therapy.
# The in vivo combination therapy experiments were repeated three to five times, and repeat therapy was performed once. The numbers of moribund animals up to 7 and 36 days after the combination and repeat therapies, respectively, were recorded, and the data were analyzed for significant differences among various groups by using the paired two-sample t test for means in MICROSOFT® Excel 2003.
# [5] = system: freshly isolated granulocytes from human blood; assay: fOPA, opsonophagocytic uptake (OPU) of S. pneumoniae serotype 14 Ps-coated beads; format: cell-based; settings: P4 100 μg/mL
# Description: (§1) The flow cytometric opsonophagocytic assay (fOPA) was performed with HL-60 cells differentiated into granulocytes or monocytes as described by Martinez et al., Clin Diagn Lab Immunol 9:485-8, 2002; Martinez et al., Clin Vaccine Immunol 13:459-66, 2006; and Mezzatesta et al., Infect Immun 42:99-105, 1983. In-house quality-control sera (QC5 and QC268) were used as a source for serotypespecific antibodies against the capsular Ps of S. pneumoniae serotype 14 and Neisseria meningitides A, respectively. Polystyrene beads were covalently linked to S. pneumoniae and non-S. pneumoniae antigens, as described by Martinez et al., Clin Diagn Lab Immunol 9:485-8, 2002; and Martinez et al., Clin Vaccine Immunol 13:459-66, 2006 and used in fOPA.
# Heparinized venous blood was obtained from the Emory Blood Donor Services. A leukocyte separation kit, HISTOPAQUE®-1119 (Sigma), was used to separate granulocytes from the blood, in accordance with the method recommended by the manufacturer.
# [6] = system: HL-60-derived monocytes; assay: fOPA, OPU of N. meningitidis A Ps-coated beads; format: cell-based, human; settings: P4 100 μg/mL; QC268 serum; FIG. 2C
# Description: as §1
# [7] = system: S. pneumoniae serotype 3 (WU2); settings: P4 100 μg/ml; PMNs from infected (1 and 2 hours postinfection) or uninfected mice; gamma globulin as IgG source; P<0.05
# Description: We used the in vitro opsonophagocytic killing assay (OPKA) as described previously by Romero-Steiner et al. (Romero-Steiner et al., Clin. Diagn. Lab. Immunol. 4:415-422, 1997) with polymorphonuclear leukocytes (PMNs) isolated from mice (Devi et al., Indian J. Physiol. Pharmacol. 39:354-360, 1995). Peripheral blood samples were collected from mice 1 and 2 hours postinfection (with Pnc WU2) or from uninfected controls as described previously (Frasch and Scott, 2004), and the buffy coat fractions were separated (Devi et al, 1995) and used as the source of effector cells. Gamma globulin (Gamunex, Telecris, N.C.) was used as the serotype-specific antibody source. S. pneumoniae serotype 3 (WU2) was propagated, stored, and used in this assay as described previously (Rajam et al., 2007; Romero-Steiner, 2006). A 100-μg/ml P4 peptide solution was added to the OPKA mixture at the preopsonization stage, and the control wells received diethyl pyrocarbonate water.
# [8] = system: S. pneumoniae serotype 3 (WU2); assay: Test for bacteremia in blood of treated mice; format: in vivo; settings: P4-treated mice
# Description: Blood samples from P4-treated and untreated mice were collected (Rajam et al., J. Infect. Dis. 199:1233-1238, 2009), and […] aliquots of the heparinized blood samples were spread onto plates of blood agar (blood agar base plus 5% sheep blood plus gentamicin [2.5 mg/liter]). The plates were incubated for 18 to 24 hours at 37° C. in 5% CO^2, and bacteria were counted.
# [9] = system: HL-60-derived granulocytes; assay: Flow cytometric opsonophagocytic assay (fOPA), respiratory burst with OXYBURST-labeled S. pneumoniae serotype 23F; format: cell-based, human; settings: P4 100 μg/mL; QC2 serum; titrated out with antibody dilution; FIG. 2A
# Description: as §1
# A loopful of the frozen stock of S. pneumoniae serotype 23F was grown overnight (37° C. in 5% CO2) in Todd-Hewitt broth (Difco) supplemented with 0.5% yeast extract (THYE). A loopful of the overnight culture was transferred to 1 mL of fresh THYE broth and incubated for 3 hours. From this, 200 μL was transferred to 5 mL of THYE broth and incubated for 3 hours, after which 1 mL was transferred to 5 mL of THYE broth and incubated for another 3 hours (all incubations were done at 37° C. in 5% CO2). After the third passage, the bacterial suspension was centrifuged at 6000 g for 10 minutes and resuspended in 1 mL of 0.01 mol/L phosphate buffered saline (PBS). […]
compound,measurement,setting,value
LFVESSVKRRPMKTVSQDTNIPIYAQIF [P4],toxic effect on mice,[1],no apparent toxic effect
same,P4-mediated change in OPK over control,"[2]; P4 5 μg/mL, gamma globulin 1:8, FIG. 1C",no change in OPK
same,P4-mediated increase in OPK over control,"[2]; P4 10 μg/mL, gamma globulin 1:8, FIG. 1C",8%
same,P4-mediated increase in OPK over control,"[2]; P4 50 μg/mL, gamma globulin 1:8, FIG. 1C",30%
same,P4-mediated increase in OPK over control,"[2]; P4 100 μg/mL, gamma globulin 1:8, FIG. 1C",35%
same,P4-mediated increase in OPK over control,"[2]; absence of a complement source (heat-inactivated complement), FIG. 1B",no increase in OPK
same,P4-mediated increase in OPK over control,"[2]; gamma globulin 1:8 dilution, P4 100 μg/mL, FIG. 1A",35%
same,P4-mediated increase in OPK over control,"[2]; gamma globulin 1:32 dilution, FIG. 1A",paralleling the results obtained for controls
same,anti-P4 IgG in serum,[3],negative
same,protection (survival comparable to untreated controls),[4]; P4 alone,poor protection
same,increase in OPU of S. pneumoniae serotype 14 Ps beads,[5]; antibody dilution 1:64,52%
same,increase in OPU of S. pneumoniae serotype 14 Ps beads,[5]; antibody dilution 1:128,48%
same,increase in OPU of S. pneumoniae serotype 14 Ps beads,[5]; antibody dilution 1:256,25%
same,increase in OPU of S. pneumoniae serotype 14 Ps beads,[5]; antibody dilution 1:512,5%
same,OPU of S. pneumoniae serotype 14 Ps-coated beads (in words),"[5]; in the presence of QC2, FIG. 2B legend",increased the OPU
same,increase in OPU of S. pneumoniae serotype 14 Ps beads,"[5]; overall figure, FIG. 2B",50%
same,OPU of N. meningitidis A Ps-coated beads,[6],increase in the OPU; also recorded: increased the OPU
same,increase in opsonophagocytic killing over control,[7],> 80% and 80%
same,bacteremia in blood samples,[8],no bacteremia
same,intraphagocytic respiratory burst (OXYBURST signal),[9],increase in the intraphagocytic respiratory burst; also recorded: increased the respiratory burst
"CO/N=C(\C(=O)N[C@@H]1C(=O)N2C(C(=O)O)=C(CSc3nc(=O)c(=O)[nH]n3C)CS[C@H]12)c1csc(N)n1 [ceftriaxone, Ceftriaxone]",protection (survival comparable to untreated controls),[4]; ceftriaxone alone 0.3 μg ip,poor protection
same,protection (survival comparable to untreated controls),[4]; ceftriaxone alone 3.0 μg ip,poor protection
same,protection (survival comparable to untreated controls),[4]; ceftriaxone alone 300 μg ip,poor protection
same,survival rate,"[4]; ceftriaxone alone 3,000 μg ip, 168 hours",90%
